# Data: patent publication US7638535B2, “4-(aminomethyl)-piperidine benzamides as 5HT4-antagonists” (Janssen Pharmaceutica N.V., priority 2003, dated 2009)
# Target: T1, h5-HT4b (Homo sapiens, UniProt Q13639)
# T1 construct: expressed in transfected cells; host or cells: HEK 293 (clone 9), membrane preparation
# Experiment: 5HT4 antagonism: [3H]GR113808 binding to membranes of h5-HT4b-HEK 293 clone 9 cells
# Conditions: displacement of [3H]GR113808 0.1 nM, h5-HT4b-HEK 293 membranes, 30 min at 25° C.; read-out: pIC50 (5HT4 antagonistic data) (converted)
# Procedure: h5-HT4b-HEK 293 clone 9 cells were cultured in 150 mm Petri dishes and washed twice with cold PBS. The cells were then scraped from the plates and suspended in 50 mM Tris-HCl buffer, pH 7.4 and harvested by centrifugation at 23,500 rpm for 10 minutes. The pellet was resuspended in 5 mM Tris-HCl, pH 7.4 and homogenized with an Ultra Turrax homogenizer. The membranes were collected by centrifugation at 30,000 rpm for 20 min, resuspended in 50 mM Tris-HCl pH 7.4 and stored at −80° C. For the experiment, assay mixtures (0.5 ml) contained 50 μl of the tritiated ligand (5-HT4 antagonist [^3H]GR113808 0.1 nM) and 0.4 ml membrane preparation (15 μg protein/ml). 50 μl of 10% DMSO was added for total binding. 50 μl of 1 μM of (+)-trans-(1-butyl-3-hydroxy-4-piperidinyl)methyl 8-amino-7-chloro-2,3-dihydro-1,4-benzodioxin-5-carboxylate (a proprietary 5HT4 agonist of Janssen Pharmaceutica) was added for determination of non-specific binding.
# The [^3H]GR113808 assay buffer was 50 mM HEPES-NaOH, pH 7.4. The mixtures were incubated for 30 min at 25° C. The incubation was terminated by filtration over a Unifilter 96 GF/B presoaked in 0.1% polyethylenimine, followed by six washing steps with 50 mM HEPES-NaOH, pH 7.4.
# T1 sequence (Q13639 whole entry): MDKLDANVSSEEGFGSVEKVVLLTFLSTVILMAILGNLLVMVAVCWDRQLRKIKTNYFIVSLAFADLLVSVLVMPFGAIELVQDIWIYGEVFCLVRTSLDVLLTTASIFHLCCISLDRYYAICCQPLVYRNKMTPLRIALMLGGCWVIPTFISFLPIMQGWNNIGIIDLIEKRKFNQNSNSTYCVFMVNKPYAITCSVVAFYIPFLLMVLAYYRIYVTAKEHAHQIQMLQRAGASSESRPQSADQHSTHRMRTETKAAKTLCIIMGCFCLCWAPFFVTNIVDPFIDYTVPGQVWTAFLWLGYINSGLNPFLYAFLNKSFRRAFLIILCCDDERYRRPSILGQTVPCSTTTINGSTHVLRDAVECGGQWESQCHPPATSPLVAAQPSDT
row,Structure (SMILES),IC50
1,Nc1cc(C(=O)NC[C@@H]2CCN(CCCOC3CCCCC3)C[C@H]2O)c2c(c1Cl)OCCCO2 [compound 65],3.55 nM
2,Nc1cc2c(c(C(=O)NC[C@@H]3CCN(CCOCCO)C[C@H]3O)c1)OCCO2 [compound 86],132 nM
3,CC(C)OCCCN1CC[C@@H](CNC(=O)c2cc(N)c(Cl)c3c2OCCO3)[C@H](O)C1 [compound 93],17 nM
4,Nc1cc(C(=O)NC[C@@H]2CCN(CCCC(=O)O)C[C@H]2O)c2c(c1Cl)OCCO2 [compound 25],138 nM
5,CNc1cc2c(c(C(=O)NC[C@@H]3CCN(CCCOC(C)C)C[C@H]3O)c1)OCCCO2 [compound 101],50.1 nM
6,CNc1cc2c(c(C(=O)NC[C@@H]3CCN(CC4CCCO4)C[C@H]3O)c1)OCCO2 (stereo partly shown) [compound 19],17.4 nM
7,CC1(CCCN2CC[C@@H](CNC(=O)c3cc(N)c(Cl)c4c3OCCCO4)[C@H](O)C2)OCCO1 [compound 76],22.9 nM
8,CC(C)OCCCN1CC[C@@H](CNC(=O)c2cc(N)cc3c2OCCCO3)[C@H](O)C1 [compound 37],36.3 nM
9,COCCCN1CC[C@@H](CNC(=O)c2cc(N)cc3c2OCCCO3)[C@H](O)C1 [compound 111],20 nM
10,CNc1cc2c(c(C(=O)NC[C@@H]3CCN(CCOCCO)C[C@H]3O)c1)OCCCO2 [compound 67],479 nM
11,Nc1cc2c(c(C(=O)NC[C@@H]3CCN(CCC4OCCO4)C[C@H]3O)c1)OCCO2 [compound 108],25.7 nM
12,CNc1cc2c(c(C(=O)NC[C@@H]3CCN(CCCC#N)C[C@H]3O)c1)OCCCO2 [compound 38],288 nM
13,CNCCCCN1CC[C@@H](CNC(=O)c2cc(N)c(Cl)c3c2OCCCO3)[C@H](O)C1 [compound 94],34.7 nM
14,CNc1cc2c(c(C(=O)NC[C@@H]3CCN(CC4CCCO4)C[C@H]3O)c1)OCCCO2 (stereo partly shown) [compound 21],63.1 nM
15,CS(=O)(=O)NCCN1CC[C@@H](CNC(=O)c2cc(N)c(Cl)c3c2OCCCO3)[C@H](O)C1 [compound 75],30.9 nM
16,CNc1cc2c(c(C(=O)NC[C@@H]3CCN(Cc4ccc(F)cc4)C[C@H]3O)c1)OCCCO2 [compound 74],214 nM
17,Nc1cc(C(=O)NC[C@@H]2CCN(CCCC(=O)O)C[C@H]2O)c2c(c1Cl)OCCCO2 [compound 66],282 nM

row,Structure (SMILES),IC50
1,Nc1cc2c(c(C(=O)NC[C@@H]3CCN(CCCO)C[C@H]3O)c1)OCCCO2 [compound 112],13.2 nM
2,CS(=O)(=O)NCCN1CC[C@@H](CNC(=O)c2cc(N)cc3c2OCCCO3)[C@H](O)C1 [compound 99],72.4 nM
3,CNc1cc2c(c(C(=O)NC[C@@H]3CCN(CCCC(=O)O)C[C@H]3O)c1)OCCCO2 [compound 27],2630 nM
4,COCCCCN1CC[C@@H](CNC(=O)c2cc(N)cc3c2OCCO3)[C@H](O)C1 [compound 41],15.5 nM
5,CNCCCN1CC[C@@H](CNC(=O)c2cc(NC)cc3c2OCCCO3)[C@H](O)C1 [compound 81],1150 nM
6,Nc1cc(C(=O)NC[C@@H]2CCN(CCC3OCCO3)C[C@H]2O)c2c(c1Cl)OCCCO2 [compound 52],14.8 nM
7,COCCN1CC[C@@H](CNC(=O)c2cc(N)c(Cl)c3c2OCCO3)[C@H](O)C1 [compound 42],18.6 nM
8,N#CCN1CC[C@@H](CNC(=O)c2cc(N)c(Cl)c3c2OCCCO3)[C@H](O)C1 [compound 82],6170 nM
9,Nc1cc(C(=O)NC[C@@H]2CCN(CCOCCO)C[C@H]2O)c2c(c1Cl)OCCCO2 [compound 72],83.2 nM
10,CNc1cc2c(c(C(=O)NC[C@@H]3CCN(CCCC(C)=O)C[C@H]3O)c1)OCCO2 [compound 61],14.5 nM
11,CNc1cc2c(c(C(=O)NC[C@@H]3CCN(CCCC#N)C[C@H]3O)c1)OCCO2 [compound 20],52.5 nM
12,CNc1cc(C(=O)NC[C@@H]2CCNC[C@H]2O)c2c(c1Cl)OCCO2 [compound 105],437 nM
13,CNCCCCN1CC[C@@H](CNC(=O)c2cc(N)cc3c2OCCO3)[C@H](O)C1 [compound 104],33.9 nM
14,CNc1cc2c(c(C(=O)NC[C@@H]3CCN(CCCOC4CCCCC4)C[C@H]3O)c1)OCCO2 [compound 40],6.92 nM
15,Nc1cc2c(c(C(=O)NC[C@@H]3CCN(Cc4ccc(F)cc4)C[C@H]3O)c1)OCCCO2 [compound 55],64.6 nM
16,Nc1cc(C(=O)NCC2CCN(CC3CCCO3)C[C@H]2O)c2c(c1Cl)OCCCO2 (stereo partly shown) [compound 51],14.5 nM

# Second part, the compound after the results:
row,IC50,Structure (SMILES)
1,3550 nM,CCCNc1cc2c(c(C(=O)NC[C@@H]3CCNC[C@H]3O)c1)OCCCO2 [compound 149]
2,43.7 nM,CC(C)Nc1cc2c(c(C(=O)NC[C@@H]3CCN(CCCO)C[C@H]3O)c1)OCCCO2 [compound 180]
3,46.8 nM,CCCCNc1cc2c(c(C(=O)NC[C@@H]3CCN(CCCO)C[C@H]3O)c1)OCCCO2 [compound 156]
4,17.8 nM,CCCCN1CC[C@@H](CNC(=O)c2cc(C#N)cc3c2OCCCO3)[C@H](OC)C1 [compound 209]
5,0.776 nM,Cc1cc2c(c(C(=O)NC[C@@H]3CCN(CC4CC4)C[C@H]3O)c1)OCCCO2 [compound 218]
6,18.2 nM,COCc1cc2c(c(C(=O)NC[C@@H]3CCN(CCC4OCCO4)C[C@H]3O)c1)OCCCO2 [compound 126]
7,0.589 nM,Cc1cc2c(c(C(=O)NC[C@@H]3CCN(CCCCOc4ccc(S(N)(=O)=O)cc4)C[C@H]3O)c1)OCCCO2 [compound 194]
8,19.1 nM,COCCCCN1CCC(O)(CNC(=O)c2cc(C)cc3c2OCCCO3)CC1 [compound 239]
9,47.9 nM,CO[C@@H]1CN(CCCNS(C)(=O)=O)CC[C@H]1CNC(=O)c1cc(C#N)cc2c1OCCCO2 [compound 236]
10,0.427 nM,Cc1cc2c(c(C(=O)NC[C@@H]3CCN(CCCOc4ccc(S(N)(=O)=O)cc4)C[C@H]3O)c1)OCCCO2 [compound 196]
11,63.1 nM,N#CCCCN1CC[C@@H](CNC(=O)c2cc(N)c(Br)c3c2OCCCO3)[C@H](O)C1 [compound 145]
12,30.9 nM,COCCCN1CC[C@H](CNC(=O)c2cc(C)cc3c2OCCCO3)[C@@H](O)C1 [compound 251]
13,3.63 nM,CCCCN1CC[C@@H](CNC(=O)c2cc(OC)cc3c2OCCCO3)[C@H](O)C1 [compound 195]
14,81.3 nM,N#CCCCCN1CC[C@@H](CNC(=O)c2cc(N)c(Br)c3c2OCCO3)[C@H](O)C1 [compound 138]
15,1.86 nM,CC(C)OCCCN1CC[C@H](CNC(=O)c2cc(C#N)cc3c2OCCCO3)[C@@H](O)C1 [compound 219]
16,1350 nM,CO[C@@H]1CNCC[C@H]1CNC(=O)c1cc(C#N)cc2c1OCCCO2 [compound 203]
17,100 nM,CCCNc1cc2c(c(C(=O)NC[C@@H]3CCN(CCCOC)C[C@H]3O)c1)OCCCO2 [compound 148]
18,9.33 nM,COCCCCN1CC[C@H](CNC(=O)c2cc(C)cc3c2OCCCO3)[C@H](O)C1 [compound 243]
19,269 nM,COCc1cc2c(c(C(=O)NC[C@@H]3CCNC[C@H]3O)c1)OCCCO2 [compound 190]

row,IC50,Structure (SMILES)
1,93.3 nM,Nc1cc(C(=O)NC[C@@H]2CCN(CCCO)C[C@H]2O)c2c(c1Br)OCCO2 [compound 140]
2,1.55 nM,Nc1cc2c(c(C(=O)NC[C@@H]3CCN(CCCO)C[C@H]3O)c1)OCCO2 [compound 117]
3,120 nM,CCCCNc1cc2c(c(C(=O)NC[C@@H]3CCN(CCCC#N)C[C@H]3O)c1)OCCCO2 [compound 150]
4,16.2 nM,N#Cc1cc2c(c(C(=O)NC[C@@H]3CCN(CCC4OCCO4)C[C@H]3O)c1)OCCCO2 [compound 170]
5,5.62 nM,CO[C@@H]1CN(CCCC#N)CC[C@H]1CNC(=O)c1cc(C#N)cc2c1OCCCO2 [compound 208]
6,45.7 nM,Cc1cc2c(c(C(=O)NCC3(O)CCN(CCCC#N)CC3)c1)OCCCO2 [compound 240]
7,123 nM,N#Cc1cc2c(c(C(=O)NC[C@@H]3CCNC[C@H]3O)c1)OCCCO2 [compound 175]
8,60.3 nM,Nc1cc2c(c(C(=O)NC[C@@H]3CCN(CCC4OCCO4)C[C@H]3O)c1)OCCCO2 [compound 118]
9,4.27 nM,Cc1cc2c(c(C(=O)NC[C@@H]3CCN(CCCC#N)C[C@H]3O)c1)OCCCO2 [compound 166]
10,81.3 nM,CNc1cc2c(c(C(=O)NC[C@@H]3CCN(CCCCO)C[C@H]3O)c1)OCCCO2 [compound 136]
11,1.32 nM,CCCCN1CC[C@@H](CNC(=O)c2cc(C)cc3c2OCCCO3)[C@H](OC)C1 [compound 222]
12,16.2 nM,CNc1cc(C(=O)NC[C@@H]2CCN(CC3CCCO3)C[C@H]2O)c2c(c1Cl)OCCO2 (stereo partly shown) [compound 129]
13,1 nM,CCCCN1CC[C@@H](CNC(=O)c2cc(C)cc3c2OCCCO3)[C@H](O)C1 [compound 164]
14,17 nM,N#CCc1cc2c(c(C(=O)NC[C@@H]3CCN(CC4CCCO4)C[C@H]3O)c1)OCCCO2 (stereo partly shown) [compound 127]
15,5.01 nM,CO[C@@H]1CN(CCCC#N)CC[C@H]1CNC(=O)c1cc(C)cc2c1OCCCO2 [compound 215]
16,2.34 nM,Cc1cc2c(c(C(=O)NC[C@@H]3CCN(CCC(N)=O)C[C@H]3O)c1)OCCCO2 [compound 214]
17,2.63 nM,Cc1cc2c(c(C(=O)NC[C@@H]3CCN(CCCCCC(N)=O)C[C@H]3O)c1)OCCCO2 [compound 213]
18,83.2 nM,CO[C@@H]1CNCC[C@H]1CNC(=O)c1cc(C)cc2c1OCCCO2 [compound 204]
